From patent publication US11827628B2, “Compositions and methods for inhibition of the JAK pathway” (Rigel Pharmaceuticals, Inc., priority 2005, dated 2023) come the findings set out here.

For the assay, the system named is up-regulation of ICAM-1 (CD54) by IFNγ in U937 human monocytic cells. Kind of assay: U937 IFNγ ICAM1 FACS Assay. The conditions noted are these: U937 cells stimulated with IFNγ; ICAM-1 expression by FACS; read-out: IC50, Example 44. It counts as cell-based. In outline: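 U937 cells in 10% FCS RPMI were preincubated 30 min at 37 °C with an 8-point, 3-fold compound dilution series in duplicate, then stimulated with IFNγ for 18–24 h. Surface ICAM-1 was stained with APC anti-ICAM-1 and read by flow cytometry as geometric mean on live-gated cells. EC50 was derived.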
Turning to `Cc1ccc(Nc2ncc(F)c(Nc3ccc4c(c3)NC(=O)CS4)n2)cc1S(N)(=O)=O` [VII-45, N2-(3-Aminosulphonyl-4-methyl-phenyl)-5-fluoro-N4-(3-oxo-4H-benzo[1,4]thiazin-6-yl)-2,4-pyrimidinediamine], the IC50 amounted to 0.477 µM.

For `CN1C(=O)CSc2ccc(Nc3nc(Nc4cccc(S(=O)(=O)N5CCCCC5)c4)ncc3F)cc21` [VII-50, 5-Fluoro-N4-(4-methyl-3-oxo-benz[1,4]thiazin-6-yl)-N2-(3-pipendinosulfonylphenyl)-2,4-pyrimidinediamine], the IC50 worked out at 5.06 µM.

As to `CS(=O)(=O)N1CCc2cc(Nc3nc(Nc4cccc(S(N)(=O)=O)c4)ncc3F)ccc21` [VII-60, N2-(3-Aminosulfonylphenyl)-5-fluoro-N4-[4-(1-methylsulfonyl)indolin-5-yl]-2,4-pyrimidinediamine], the concentration for half-maximal inhibition (IC50) was 0.57 µM.

As for `CNS(=O)(=O)c1cc(Nc2ncc(F)c(Nc3ccc4c(c3)CCN4S(C)(=O)=O)n2)ccc1C` [VII-62, 5-Fluoro-N2-[3-(N-methylaminosulfony)-4-methylphenyl]-N4-[4-(1-methylsulfonyl)indolin-5-yl]-2,4-pyrimidinediamine], the IC50 was 0.496 µM.

Take `CS(=O)(=O)N1CCc2cc(Nc3nc(Nc4ccc(S(N)(=O)=O)cc4)ncc3F)ccc21` [VII-63]: the half-inhibitory concentration (IC50) stood at 6.03 µM.

As to `COc1ccc(Nc2nc(Nc3cc(C)c4c(c3)S(=O)(=O)NC=N4)ncc2F)cc1Cl` [VIII-3, N4-(3-Chloro-4-methoxyphenyl)-5-fluoro-N2-(5-methyl-2H-1,1-dioxo-1,2,4-benzothiadiazin-7-yl)-2,4-pyrimidinediamine], the IC50 is 10.1 µM.

For “N2-(3-Aminosulfonyl-4-methylphenyl)-5-fluoro-N4-[4-(2-pyridinyl)-3-fluoromethyleneoxyphenyl]-2,4-pyrimidinediamine [Compound I-172]”, the IC50 was 1.1 µM.

For the compound “N2-(3-Aminosulphonylphenyl)-5-fluoro-N4-[4-(3-pyridinylmethyl)benzo[1,4]oxazin-7-yl]-2,4-pyrimidinediamine [VII-55]”, the IC50 was determined as 1.67 µM.

For “N2-(3-Aminosulphonylphenyl)-5-fluoro-N4-[4-(3-pyridinylmethyl)benzo[1,4]oxazin-7-yl]-2,4-pyrimidinediamine [VII-56]”, the half-inhibitory concentration (IC50) came to 1.93 µM.

On to “N2-[3-Aminosulfonyl-4-(4-methylpiperazine-1-yl)phenyl]-N4-(3-cyanomethylene-1H-indol-6-yl)-5-fluoro-2,4-pyrimidinediamine [IX-17]”, for which the IC50 is 1.98 µM.

As for “N2-[3-Aminosulfonyl-4-(4-methylpiperazine-1-yl)phenyl]-N4-(3-cyanomethylene-1H-indol-7-yl)-5-fluoro-2,4-pyrimidinediamine [IX-18]”, the IC50 stood at 6.66 µM.

Turning to “N4-(3-Chloro-4-cyanomethyleneoxyphenyl)-5-fluoro-N2-(5-methyl-2H-1,1-dioxide-1,2,4-benzothiadiazin-7-yl)-2,4-pyrimidinediamine [VIII-2]”, the IC50 is 8.55 µM.
